Legend:
[1] = biological target: T1, Angiotensin-converting enzyme (Oryctolagus cuniculus, UniProt P12822); experiment: In vitro inhibition of rabbit lung Angiotensin I converting enzyme (ACE) using Hippuryl-His-Leu as substrate
T1 sequence (P12822 whole entry): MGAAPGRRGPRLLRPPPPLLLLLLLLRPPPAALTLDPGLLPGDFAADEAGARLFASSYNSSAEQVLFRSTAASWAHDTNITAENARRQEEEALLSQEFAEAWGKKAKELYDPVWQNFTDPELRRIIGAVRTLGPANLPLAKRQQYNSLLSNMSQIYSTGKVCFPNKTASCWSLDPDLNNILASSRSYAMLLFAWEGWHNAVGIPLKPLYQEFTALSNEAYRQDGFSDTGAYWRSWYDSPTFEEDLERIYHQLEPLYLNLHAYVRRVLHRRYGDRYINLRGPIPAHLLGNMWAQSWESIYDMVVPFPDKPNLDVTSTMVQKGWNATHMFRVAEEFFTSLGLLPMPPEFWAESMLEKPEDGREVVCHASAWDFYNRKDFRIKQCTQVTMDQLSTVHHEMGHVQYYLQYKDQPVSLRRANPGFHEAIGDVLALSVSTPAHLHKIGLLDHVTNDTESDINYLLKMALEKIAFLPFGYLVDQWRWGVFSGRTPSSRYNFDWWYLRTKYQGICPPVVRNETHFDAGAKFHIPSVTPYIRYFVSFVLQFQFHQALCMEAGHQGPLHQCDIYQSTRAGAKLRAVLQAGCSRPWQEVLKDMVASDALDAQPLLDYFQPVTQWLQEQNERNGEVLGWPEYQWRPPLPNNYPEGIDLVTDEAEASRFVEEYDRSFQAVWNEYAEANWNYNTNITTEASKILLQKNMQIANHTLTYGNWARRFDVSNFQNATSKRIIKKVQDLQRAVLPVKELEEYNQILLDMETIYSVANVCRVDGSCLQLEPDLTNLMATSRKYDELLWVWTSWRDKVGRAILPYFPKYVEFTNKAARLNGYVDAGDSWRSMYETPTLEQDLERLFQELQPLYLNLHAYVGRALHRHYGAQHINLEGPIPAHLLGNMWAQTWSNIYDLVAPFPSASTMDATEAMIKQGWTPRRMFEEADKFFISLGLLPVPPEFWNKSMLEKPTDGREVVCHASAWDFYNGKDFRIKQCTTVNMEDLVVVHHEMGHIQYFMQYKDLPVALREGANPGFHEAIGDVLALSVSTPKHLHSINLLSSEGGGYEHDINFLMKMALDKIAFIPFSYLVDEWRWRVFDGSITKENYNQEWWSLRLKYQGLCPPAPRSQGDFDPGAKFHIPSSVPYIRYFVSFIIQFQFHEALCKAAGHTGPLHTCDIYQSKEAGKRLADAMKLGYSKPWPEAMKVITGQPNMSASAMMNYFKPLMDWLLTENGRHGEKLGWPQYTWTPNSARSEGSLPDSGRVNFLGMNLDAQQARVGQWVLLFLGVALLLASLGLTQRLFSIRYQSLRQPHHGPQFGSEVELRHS

Rattus norvegicus [2] = experiment: In vivo inhibition of angiotensin I-induced pressor response after iv administration in normotensive rats; format: functional
Neprilysin = biological target: T2, Neprilysin (Rattus norvegicus, UniProt P07861); experiment: In vitro inhibition of rat kidney neutral endopeptidase (NEP) by fluorometric assay using Dansyl-Gly-Phe-Arg as substrate
T2 sequence (P07861 whole entry): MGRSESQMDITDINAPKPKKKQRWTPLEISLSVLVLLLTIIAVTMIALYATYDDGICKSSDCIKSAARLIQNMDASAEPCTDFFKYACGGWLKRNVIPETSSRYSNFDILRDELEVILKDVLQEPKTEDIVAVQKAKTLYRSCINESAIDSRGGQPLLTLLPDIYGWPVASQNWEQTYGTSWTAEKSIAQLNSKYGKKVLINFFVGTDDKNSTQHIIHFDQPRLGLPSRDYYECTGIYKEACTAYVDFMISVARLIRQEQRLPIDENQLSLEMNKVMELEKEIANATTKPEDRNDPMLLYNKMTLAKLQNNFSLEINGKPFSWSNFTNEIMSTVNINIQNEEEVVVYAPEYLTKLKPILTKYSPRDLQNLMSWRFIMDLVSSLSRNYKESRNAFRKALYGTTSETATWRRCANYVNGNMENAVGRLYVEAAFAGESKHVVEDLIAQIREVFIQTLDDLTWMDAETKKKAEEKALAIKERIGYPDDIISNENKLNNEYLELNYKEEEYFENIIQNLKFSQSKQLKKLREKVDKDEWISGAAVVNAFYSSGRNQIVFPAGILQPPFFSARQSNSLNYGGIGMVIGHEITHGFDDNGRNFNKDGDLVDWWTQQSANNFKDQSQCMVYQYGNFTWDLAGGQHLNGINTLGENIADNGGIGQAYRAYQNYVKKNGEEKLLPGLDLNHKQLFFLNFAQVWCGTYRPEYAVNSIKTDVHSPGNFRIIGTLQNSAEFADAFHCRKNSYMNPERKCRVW

Rattus norvegicus [3] = experiment: In vivo inhibition of angiotensin- 1 induced pressor response after iv administration in normotensive rats; format: functional

Q: How did the IC50 [1] turn out when `C[C@H](NC(=O)[C@@H](S)Cc1ccccc1)C(=O)N1CCC[C@H]1C(=O)O` was run?
A: 30 nM

Q: What about the ED50 (Rattus norvegicus [2]) of the same compound?
A: 0.06 µmol/kg

Q: And the IC50 (Neprilysin)?
A: 400 nM

Q: With `C[C@H](NC(=O)[C@@H](CS)Cc1ccc(OCc2ccccc2)cc1)C(=O)N1CCC[C@@H]1C(=O)O` as the compound, how does the IC50 [1] read?
A: 880 nM

Q: And the IC50 (Neprilysin)?
A: 40 nM

Q: With `C[C@H](NC(=O)[C@@H](CS)Cc1ccccc1)C(=O)N1CCC[C@H]1C(=O)O` as the compound, how does the IC50 [1] read?
A: 4 nM

Q: What about the ED50 (Rattus norvegicus [2]) of the same compound?
A: 0.5 µmol/kg

Q: And the IC50 (Neprilysin)?
A: 6.6 nM

Q: Which IC50 [1] does the source give for `C[C@H](NC(=O)C(CS)CCc1ccccc1)C(=O)N1CCC[C@@H]1C(=O)O` (stereo not given in full) here?
A: 290 nM

Q: And the IC50 (Neprilysin)?
A: 160 nM

Q: What does the source list for `C[C@H](NC(=O)[C@@H](CS)Cc1ccccc1)C(=O)N1C[C@H](C2CCCCC2)C[C@H]1C(=O)O`?
A: IC50 [1]: 18 nM; ED50 (Rattus norvegicus [2]): 2.5 µmol/kg; IC50 (Neprilysin): 6.6 nM

Q: With `C[C@H](CS)C(=O)N[C@@H](C)C(=O)N1CCC[C@@H]1C(=O)O` as the compound, how does the IC50 [1] read?
A: 1800 nM

Q: And the IC50 (Neprilysin)?
A: 140 nM

Q: What does the source list for `C[C@H](NC(=O)[C@@H](CS)Cc1ccccc1)C(=O)N1Cc2ccccc2C[C@H]1C(=O)O`?
A: IC50 [1]: 14 nM; ED50 (Rattus norvegicus [2]): 0.57 µmol/kg; IC50 (Neprilysin): 3.9 nM

Q: What does the source list for `C[C@H](NC(=O)[C@H](CS)Cc1ccccc1)C(=O)N1CCC[C@H]1C(=O)O`?
A: IC50 [1]: 210 nM; ED50 (Rattus norvegicus [2]): 8.1 µmol/kg; IC50 (Neprilysin): 45 nM

Q: With `C[C@H](NC(=O)[C@@H](CS)Cc1ccccc1Cl)C(=O)N1CCC[C@@H]1C(=O)O` as the compound, how does the IC50 [1] read?
A: 25 nM

Q: What about the ED50 (Rattus norvegicus [2]) of the same compound?
A: 2.6 µmol/kg

Q: What about the IC50 (Neprilysin) of the same compound?
A: 2.2 nM

Q: Which IC50 [1] does the source give for `C[C@H](NC(=O)[C@H](Cc1ccccc1)[C@@H](C)S)C(=O)N1CCC[C@H]1C(=O)O` here?
A: 78 nM

Q: What about the ED50 (Rattus norvegicus [2]) of the same compound?
A: > 5 µmol/kg

Q: What about the IC50 (Neprilysin) of the same compound?
A: 182 nM

Q: For `C[C@H](NC(=O)[C@@H](CS)Cc1ccccc1)C(=O)N1c2ccccc2C[C@H]1C(=O)O`, which IC50 [1] is on record?
A: 7.8 nM

Q: What about the ED50 (Rattus norvegicus [2]) of the same compound?
A: 0.15 µmol/kg

Q: And the IC50 (Neprilysin)?
A: 2.6 nM

Q: Which results are given for `C[C@H](NC(=O)[C@H](Cc1ccccc1)[C@H](C)S)C(=O)N1CCC[C@H]1C(=O)O`?
A: IC50 [1]: 452 nM; IC50 (Neprilysin): 32 nM

Q: `C[C@H](NC(=O)[C@@H](CS)Cc1ccccc1)C(=O)N1C[C@@H](Sc2ccccc2)C[C@H]1C(=O)O` was tested. Which IC50 [1] did it give?
A: 8.7 nM

Q: What about the ED50 (Rattus norvegicus [2]) of the same compound?
A: 0.78 µmol/kg

Q: And the IC50 (Neprilysin)?
A: 1.6 nM

Q: Which results are given for `Cc1ccccc1C[C@H](CS)C(=O)N[C@@H](C)C(=O)N1CCC[C@@H]1C(=O)O`?
A: IC50 [1]: 69 nM; ED50 (Rattus norvegicus [2]): 4.2 µmol/kg; IC50 (Neprilysin): 6.2 nM

Q: Which IC50 [1] does the source give for `CC(C)CC(CS)C(=O)N[C@@H](C)C(=O)N1CCC[C@@H]1C(=O)O` (stereo not given in full) here?
A: 490 nM

Q: What about the IC50 (Neprilysin) of the same compound?
A: 10 nM

Q: Which results are given for `O=C(N[C@@H](Cc1c[nH]c2ccccc12)C(=O)N1CCC[C@H]1C(=O)O)[C@@H](CS)Cc1ccccc1`?
A: IC50 [1]: 10 nM; ED50 (Rattus norvegicus [2]): 6.4 µmol/kg; IC50 (Neprilysin): 25 nM

Q: For `CC(C)C[C@H](NC(=O)[C@@H](S)Cc1ccccc1)C(=O)O`, which IC50 [1] is on record?
A: 1600 nM

Q: `CC(C)C[C@H](NC(=O)[C@@H](CS)Cc1ccccc1)C(=O)O` was tested. Which IC50 [1] did it give?
A: 37 nM

Q: What does the source list for `O=C(O)CCNC(=O)[C@@H](CS)Cc1ccccc1`?
A: IC50 [1]: 32000 nM; IC50 (Neprilysin): 9.4 nM

Q: With `C[C@H](NC(=O)[C@H](S)Cc1ccccc1)C(=O)N1CCC[C@H]1C(=O)O` as the compound, how does the IC50 [1] read?
A: 80 nM

Q: What about the ED50 (Rattus norvegicus [2]) of the same compound?
A: 0.03 µmol/kg

Q: What about the IC50 (Neprilysin) of the same compound?
A: 285 nM

Q: What does the source list for `C[C@H](NC(=O)[C@@H](CS)Cc1ccccc1)C(=O)O`?
A: IC50 [1]: 120 nM; ED50 (Rattus norvegicus [3]): 15 µmol/kg

Q: `CCC[C@H](NC(=O)[C@@H](CS)Cc1ccccc1)C(=O)N1CCC[C@H]1C(=O)O` was tested. Which IC50 [1] did it give?
A: 10 nM

Q: And the ED50 (Rattus norvegicus [2])?
A: 2.2 µmol/kg

Q: What about the IC50 (Neprilysin) of the same compound?
A: 2 nM
